Data reported in article PMC8191315 (European Journal of Medicinal Chemistry, 2021).

Target: SARS-CoV-2 RdRp (Severe acute respiratory syndrome coronavirus 2, UniProt P0DTD1)
Format: cell-based
Conditions: 5 μM and 10 μM, HEK293T cells, 24 h, real-time qRT-PCR

| Compound | levels of viral plus- and minus-strand Gluc RNA |
| --- | --- |
| CCOc1ccccc1CN(OC)C(=O)CSc1c[nH]c2cccc(Br)c12 [6d5, N-(2-ethoxybenzyl)-2-((4-bromo-1H-indol-3-yl)thio)-N-methoxyacetamide] | decreased the levels of viral plus- and minus-strand Gluc RNA in a dose-dependent manner |
| O=C(CSc1c[nH]c2cccc(Br)c12)N(Cc1ccccc1)Cc1ccccc1 [6d2, N,N-dibenzyl-2-((4-bromo-1H-indol-3-yl)thio)acetamide] | decreased the levels of viral plus- and minus-strand Gluc RNA in a dose-dependent manner |
| COc1ccccc1CNC(=O)CSc1c[nH]c2c(-c3ccccc3)cccc12 [6c9, N-(2-methoxybenzyl)-2-((7-phenyl-1H-indol-3-yl)thio)acetamide] | decreased the levels of viral plus- and minus-strand Gluc RNA in a dose-dependent manner |
| O=C(CSc1c[nH]c2ccccc12)N(Cc1ccccc1)Cc1ccccc1 [6b2, N,N-dibenzyl-2-((1H-indol-3-yl)thio)acetamide] | decreased the levels of viral plus- and minus-strand Gluc RNA in a dose-dependent manner |
| CN(Cc1ccccc1)C(=O)CSc1c[nH]c2ccccc12 [6b5, 2-((1H-indol-3-yl)thio)-N-benzyl-N-methylacetamide] | decreased the levels of viral plus- and minus-strand Gluc RNA in a dose-dependent manner |
